Data published in ChEMBL document CHEMBL1201862, “PubChem BioAssay data set” (2004).
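Briefly, cells in 96-well plates were exposed to five compound concentrations for 48 h, and endpoints were estimated by linear interpolation. GI50 = concentration required for 50% inhibition of growth.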 Active and inactive are the calls of the source. Rule as the data show it: active = GI50 up to about 1.1 µM and inactive = higher.

Legend:
Test in all cases: growth of human tumour cells (NCI), 48 h
HL-60 = tested on: HL-60
SNB-19 = tested on: SNB-19
A549 = tested on: A549
RXF 631 = tested on: RXF 631
HT-29 = tested on: HT-29
SN12C = tested on: SN12C
BT-549 = tested on: BT-549
NCI/ADR-RES = tested on: NCI/ADR-RES
OVCAR-3 = tested on: OVCAR-3
ACHN = tested on: ACHN
SK-MEL-28 = tested on: SK-MEL-28
IGROV-1 = tested on: IGROV-1
OVCAR-5 = tested on: OVCAR-5
RXF 393 = tested on: RXF 393
SR = tested on: SR
CAKI-1 = tested on: CAKI-1
MCF7 = tested on: MCF7
LXFL 529 = tested on: LXFL 529
PC-3 = tested on: PC-3
DLD-1 = tested on: DLD-1
HOP-62 = tested on: HOP-62
DMS-273 = tested on: DMS-273
HOP-92 = tested on: HOP-92
U-251 = tested on: U-251
KM12 = tested on: KM12
SNB-78 = tested on: SNB-78
786-0 = tested on: 786-0
XF498 = tested on: XF498
MDA-MB-435 = tested on: MDA-MB-435
MDA-MB-231 = tested on: MDA-MB-231
SK-MEL-5 = tested on: SK-MEL-5
CCRF-CEM = tested on: CCRF-CEM
A498 = tested on: A498
T47D = tested on: T47D
TK-10 = tested on: TK-10
NCI-H23 = tested on: NCI-H23
UACC-257 = tested on: UACC-257
NCI-H460 = tested on: NCI-H460
RPMI-8226 = tested on: RPMI-8226
SW-620 = tested on: SW-620
COLO 205 = tested on: COLO 205
HCT-15 = tested on: HCT-15
EKVX = tested on: EKVX
MOLT-4 = tested on: MOLT-4
Malme-3M = tested on: Malme-3M
HCT-116 = tested on: HCT-116
DU-145 = tested on: DU-145
MDA-N = tested on: MDA-N
OVCAR-8 = tested on: OVCAR-8
HCC 2998 = tested on: HCC 2998
M19-MEL = tested on: M19-MEL
SNB-75 = tested on: SNB-75
M14 = tested on: M14
SF-268 = tested on: SF-268
NCI-H226 = tested on: NCI-H226
Hs-578T = tested on: Hs-578T
NCI-H522 = tested on: NCI-H522
DMS-114 = tested on: DMS-114
SK-MEL-2 = tested on: SK-MEL-2
HOP-18 = tested on: HOP-18
SK-OV-3 = tested on: SK-OV-3
SF-295 = tested on: SF-295
UO-31 = tested on: UO-31
KM-20L2 = tested on: KM-20L2
UACC-62 = tested on: UACC-62
SF-539 = tested on: SF-539

Measured: GI50

CN(C)CC1CCCCCCCCCC(CN(C)C)C1=O (stereo unspecified)
> 22.3 µM: HCT-15
inactive: HL-60 15.1 µM | SNB-19 > 39.7 µM | A549 > 34.8 µM | RXF 631 > 100 µM | HT-29 14.3 µM | SN12C > 25.4 µM | BT-549 6.21 µM | NCI/ADR-RES 6.43 µM | OVCAR-3 > 20.3 µM | ACHN > 31 µM | SK-MEL-28 32.1 µM | IGROV-1 > 39.9 µM | OVCAR-5 > 49.1 µM | RXF 393 8.77 µM | SR 17.6 µM | CAKI-1 > 35.4 µM | MCF7 5.07 µM | LXFL 529 > 100 µM | PC-3 4.41 µM | DLD-1 > 100 µM | HOP-62 > 44 µM | DMS-273 > 100 µM | HOP-92 20.4 µM | U-251 > 37.5 µM | KM12 > 21.4 µM | SNB-78 > 100 µM | 786-0 > 20.6 µM | XF498 > 100 µM | MDA-MB-435 4.94 µM | MDA-MB-231 17.3 µM | SK-MEL-5 17.3 µM | CCRF-CEM 12 µM | A498 > 28.4 µM | T47D 7.06 µM | TK-10 > 37.8 µM | NCI-H23 > 27.6 µM | UACC-257 23.1 µM | NCI-H460 > 36.8 µM | RPMI-8226 > 22 µM | SW-620 > 21.2 µM | COLO 205 > 38.1 µM | EKVX > 39.9 µM | MOLT-4 7.03 µM | Malme-3M > 35.2 µM | HCT-116 > 26.7 µM | DU-145 12.9 µM | MDA-N 5.62 µM | OVCAR-8 > 32.3 µM | HCC 2998 > 100 µM | M19-MEL 63.1 µM | SNB-75 17.1 µM | M14 16.9 µM | SF-268 > 34.3 µM | NCI-H226 > 43 µM | Hs-578T 8.18 µM | NCI-H522 2.7 µM | DMS-114 > 100 µM | SK-MEL-2 > 42.9 µM | HOP-18 > 100 µM | SK-OV-3 > 28.8 µM | SF-295 > 42.1 µM | UO-31 > 38.7 µM | KM-20L2 61.4 µM | UACC-62 22 µM | SF-539 > 27.7 µM
